Molecules are shown by their SMILES.

One assay relates to KM mice. Kind of assay: Test for drug-induced disappearance of righting reflex in mice. Type of assay: in vivo. The conditions noted are these: 30 mg/kg, single rapid bolus via tail vein. The gist of the method: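 Latency to, and duration of, righting reflex loss were recorded after one fast tail-vein bolus. Animals: randomized female KM mice weighing 18–25 g.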
With `COC(=O)CC[C@@H]1N=C(c2ccccc2F)c2cc(Br)ccc2-n2c(SCC3CC3)nnc21` [Compound 46, methyl (S)-3-(8-bromo-1-((cyclopropylmethyl)thio)-6-(2-fluorophenyl)-4H-benzo[f][1,2,4]triazolo[4,3-a][1,4]diazepin-4-yl)propionate], the Duration is given as 10.83 min and the Latency was determined as 0.69 min.

Turning to `CCN(C)C(=O)Sc1nnc2n1-c1ccc(Cl)cc1C(c1ccccc1Cl)=N[C@H]2CCC(=O)OC` [Compound 142, methyl (S)-3-(8-chloro-6-(2-chlorophenyl)-1-((ethyl(methyl)carbamoyl)thio)-4H-benzo[f][1,2,4]triazolo[4,3-a][1,4]diazepin-4-yl)propionate], the Duration came out at 10.35 min and the Latency worked out at 0.21 min.

On to `C#CCSc1nnc2n1-c1ccc(Br)cc1C(c1ccccc1Cl)=N[C@H]2CCC(=O)OC` [Compound 79, methyl (S)-3-(8-bromo-6-(2-chlorophenyl)-1-(prop-2-yn-1-ylthio)-4H-benzo[f][1,2,4]triazolo[4,3-a][1,4]diazepin-4-yl)propionate], for which the Duration is 6.93 min and the Latency is given as 0.57 min.

For `COC(=O)CC[C@@H]1N=C(c2ccccc2Cl)c2cc([N+](=O)[O-])ccc2-n2c(SCC3CC3)nnc21` [Compound 77, methyl (S)-3-(8-nitro-6-(2-chlorophenyl)-1-((cyclopropylmethyl)thio)-4H-benzo[f][1,2,4]triazolo[4,3-a][1,4]diazepin-4-yl)propionate], the Duration amounted to 5.69 min and the Latency amounted to 0.38 min.

Regarding `COC(=O)CC[C@@H]1N=C(c2ccccc2)c2cc(Br)ccc2-n2c(SCCN3CCOCC3)nnc21` [Compound 106, methyl (S)-3-(8-bromo-1-((2-morpholinoethyl)thio)-6-phenyl-4H-benzo[f][1,2,4]triazolo[4,3-a][1,4]diazepin-4-yl)propionate], the Duration was determined as 12.37 min and the Latency was 0.33 min.

For the compound `COC(=O)CC[C@@H]1N=C(c2ccccc2Cl)c2cc(Br)ccc2-n2c(SCCN3CCN(C)CC3)nnc21` [Compound 91, methyl (S)-3-(8-bromo-6-(2-chlorophenyl)-1-((2-(4-methylpiperazin-1-yl)ethyl)thio)-4H-benzo[f][1,2,4]triazolo[4,3-a][1,4]diazepin-4-yl)propionate], the Duration turned out to be 17.33 min and the Latency was 1.80 min.

Compound `COC(=O)CC[C@@H]1N=C(c2ccccn2)c2cc(Br)ccc2-n2c(SCCN3CCOCC3)nnc21` [Compound 117, methyl (S)-3-(8-bromo-6-(pyridin-2-yl)-1-((2-morpholinoethyl)thio)-4H-benzo[f][1,2,4]triazolo[4,3-a][1,4]diazepin-4-yl)propionate] gave a Duration of 2.03 min and a Latency of 0.14 min.

Take `COC(=O)CC[C@@H]1N=C(c2ccccc2)c2cc(Cl)ccc2-n2c1n[nH]c2=S` [Tautomer of compound 7, methyl (S)-3-(8-chloro-6-phenyl-1-thio-2,4-dihydro-1H-benzo[f][1,2,4]triazolo[4,3-a][1,4]diazepin-4-yl)propionate]: the Duration amounted to 9.22 min and the Latency stood at 0.95 min.

`COC(=O)CC[C@@H]1N=C(c2ccccc2)c2cc([N+](=O)[O-])ccc2-n2c(SC)nnc21` [Compound 104, methyl (S)-3-(8-nitro-1-(methylthio)-6-phenyl-4H-benzo[f][1,2,4]triazolo[4,3-a][1,4]diazepin-4-yl)propionate]: the Duration was found to be 9.78 min and the Latency amounted to 0.77 min.

Turning to `CCOC(=O)CC[C@@H]1N=C(c2ccccc2Cl)c2cc([N+](=O)[O-])ccc2-n2c(SC)nnc21` [Compound 44, ethyl (S)-3-(8-nitro-6-(2-chlorophenyl)-1-(methylthio)-4H-benzo[f][1,2,4]triazolo[4,3-a][1,4]diazepin-4-yl)propionate], the Duration stood at 16.27 min and the Latency is 1.28 min.

`COC(=O)CC[C@@H]1N=C(c2ccccc2Cl)c2cc([N+](=O)[O-])ccc2-n2c(SCCCN3CCN(CCO)CC3)nnc21` [Compound 98, methyl (S)-3-(8-nitro-6-(2-chlorophenyl)-1-((3-(4-(2-hydroxyethyl)piperazin-1-yl)propyl)thio)-4H-benzo[f][1,2,4]triazolo[4,3-a][1,4]diazepin-4-yl)propionate]: the Duration stood at 14.71 min and the Latency came to 1.31 min.

`CCOC(=O)CC[C@@H]1N=C(c2ccccc2Cl)c2cc(Br)ccc2-n2c(SC)nnc21` [Compound 43, ethyl (S)-3-(8-bromo-6-(2-chlorophenyl)-1-(methylthio)-4H-benzo[f][1,2,4]triazolo[4,3-a][1,4]diazepin-4-yl)propionate]: the Duration turned out to be 12.38 min and the Latency turned out to be 0.38 min.

On to `COC(=O)CC[C@@H]1N=C(c2ccccc2F)c2cc(Br)ccc2-n2c(SCCN)nnc21` [Compound 21, methyl (S)-3-(8-bromo-6-(2-fluorophenyl)-1-((2-aminoethyl)thio)-4H-benzo[f][1,2,4]triazolo[4,3-a][1,4]diazepin-4-yl)propionate], for which the Duration worked out at 2.83 min and the Latency is on record as 0.35 min.

For the compound `COC(=O)CC[C@@H]1N=C(c2ccccc2F)c2cc([N+](=O)[O-])ccc2-n2c(SCCO)nnc21` [Compound 19, methyl (S)-3-(8-nitro-6-(2-fluorophenyl)-1-((2-hydroxyethyl)thio)-4H-benzo[f][1,2,4]triazolo[4,3-a][1,4]diazepin-4-yl)propionate], the Duration is on record as 16.22 min and the Latency is reported as 0.89 min.

Compound `CCN(CC)CCCSc1nnc2n1-c1ccc(Cl)cc1C(c1ccccc1Cl)=N[C@H]2CCC(=O)OC` [Compound 132, methyl (S)-3-(8-chloro-6-(2-chlorophenyl)-1-(3-((diethylamino)propyl)thio)-4H-benzo[f][1,2,4]triazolo[4,3-a][1,4]diazepin-4-yl)propionate] returned a Duration of 18.05 min and a Latency of 0.87 min.

Turning to `CCN(CC)CCSc1nnc2n1-c1ccc([N+](=O)[O-])cc1C(c1ccccc1F)=N[C@H]2CCC(=O)OC` [Compound 56, methyl (S)-3-(8-nitro-1-((2-(diethylamino)ethyl)thio)-6-(2-fluorophenyl)-4H-benzo[f][1,2,4]triazolo[4,3-a][1,4]diazepin-4-yl)propionate], the Duration worked out at 10.22 min and the Latency amounted to 0.92 min.

As for `COC(=O)CC[C@@H]1N=C(c2ccccc2F)c2cc(Cl)ccc2-n2c(SCCN)nnc21` [Compound 20, methyl (S)-3-(8-chloro-6-(2-fluorophenyl)-1-((2-aminoethyl)thio)-4H-benzo[f][1,2,4]triazolo[4,3-a][1,4]diazepin-4-yl)propionate], the Duration is 9.82 min and the Latency came to 0.27 min.

Still in this assay, the particulars now being: 60 mg/kg, single rapid bolus via tail vein.
Take `COC(=O)CC[C@@H]1N=C(c2ccccc2Cl)c2cc(Br)ccc2-n2c(SCCN3CCCC3)nnc21` [Compound 121, methyl (S)-3-(8-bromo-6-(2-chlorophenyl)-1-((2-(pyrrolidin-1-yl)ethyl)thio)-4H-benzo[f][1,2,4]triazolo[4,3-a][1,4]diazepin-4-yl)propionate]: the Duration turned out to be 16.67 min and the Latency is given as 0.18 min.

Compound `COC(=O)CC[C@@H]1N=C(c2ccccc2F)c2cc(Cl)ccc2-n2c(SCCCN(C)C)nnc21` [Compound 57, methyl (S)-3-(8-chloro-1-((3-(dimethylamino)propyl)thio)-6-(2-fluorophenyl)-4H-benzo[f][1,2,4]triazolo[4,3-a][1,4]diazepin-4-yl)propionate] had a Duration of 5.89 min and a Latency of 0.31 min.

With `COC(=O)CC[C@@H]1N=C(c2ccccc2)c2cc(Br)ccc2-n2c(SCCN3CCOCC3)nnc21` [Compound 106, methyl (S)-3-(8-bromo-1-((2-morpholinoethyl)thio)-6-phenyl-4H-benzo[f][1,2,4]triazolo[4,3-a][1,4]diazepin-4-yl)propionate], the Duration stood at 3.26 min and the Latency was 0.09 min.

Take `COC(=O)CC[C@@H]1N=C(c2ccccc2Cl)c2cc([N+](=O)[O-])ccc2-n2c(SCCN3CCN(C)CC3)nnc21` [Compound 92, methyl (S)-3-(8-nitro-6-(2-chlorophenyl)-1-((2-(4-methylpiperazin-1-yl)ethyl)thio)-4H-benzo[f][1,2,4]triazolo[4,3-a][1,4]diazepin-4-yl)propionate]: the Duration is on record as 10.12 min and the Latency amounted to 2.00 min.

Turning to `COC(=O)CC[C@@H]1N=C(c2ccccc2F)c2cc(Br)ccc2-n2c(SC3CCN(C)CC3)nnc21` [Compound 64, methyl (S)-3-(8-bromo-6-(2-fluorophenyl)-1-((1-methylpiperidin-4-yl)thio)-4H-benzo[f][1,2,4]triazolo[4,3-a][1,4]diazepin-4-yl)propionate], the Duration is reported as 14.27 min and the Latency stood at 0.99 min.

`COC(=O)CC[C@@H]1N=C(c2ccccc2F)c2cc(Cl)ccc2-n2c(SCCCN3CCN(CCO)CC3)nnc21` [Compound 66, methyl (S)-3-(8-chloro-6-(2-fluorophenyl)-1-((3-(4-(2-hydroxyethyl)piperazin-1-yl)propyl)thio)-4H-benzo[f][1,2,4]triazolo[4,3-a][1,4]diazepin-4-yl)propionate] had a Duration of 4.27 min and a Latency of 0.89 min.

Turning to `CCOC(=O)CC[C@@H]1N=C(c2ccccc2Cl)c2cc(Br)ccc2-n2c(SC)nnc21` [Compound 43, ethyl (S)-3-(8-bromo-6-(2-chlorophenyl)-1-(methylthio)-4H-benzo[f][1,2,4]triazolo[4,3-a][1,4]diazepin-4-yl)propionate], the Duration is 7.25 min and the Latency worked out at 0.84 min.

Take `COC(=O)CC[C@@H]1N=C(c2ccccc2F)c2cc(Br)ccc2-n2c(SCCN)nnc21` [Compound 21, methyl (S)-3-(8-bromo-6-(2-fluorophenyl)-1-((2-aminoethyl)thio)-4H-benzo[f][1,2,4]triazolo[4,3-a][1,4]diazepin-4-yl)propionate]: the Duration was 6.4 min and the Latency came out at 0.2 min.

`COC(=O)CC[C@@H]1N=C(c2ccccc2Cl)c2cc(Cl)ccc2-n2c(SCN3CCOCC3)nnc21` [Compound 99, methyl (S)-3-(8-chloro-6-(2-chlorophenyl)-1-((morpholinomethyl)thio)-4H-benzo[f][1,2,4]triazolo[4,3-a][1,4]diazepin-4-yl)propionate] showed a Duration of 19.37 min and a Latency of 2.63 min.

In turn, `COC(=O)CC[C@@H]1N=C(c2ccccc2Cl)c2cc(Cl)ccc2-n2c(SCCCN(C)C)nnc21` [Compound 87, methyl (S)-3-(8-chloro-6-(2-chlorophenyl)-1-((3-(dimethylamino)propyl)thio)-4H-benzo[f][1,2,4]triazolo[4,3-a][1,4]diazepin-4-yl)propionate] gave a Duration of 21.17 min and a Latency of 0.73 min.

Source of the values: patent US20230416258A1, “BENZ[…], AND PREPARATION METHOD THEREFOR AND USE THEREOF” (CHINA PHARMACEUTICAL UNIVERSITY, priority 2020, published 2023).
